Assay results as given in patent US9469616B2, “Cyclic compounds and methods of making and using the same” (Cellceutix Corporation, priority 2011, dated 2016).
In brackets after ≈: the same amount, converted by molar mass.

Assays:
Type in all cases: cell-based
S. aureus (27660) = assay: MIC assay (Table 1); conditions: Staphylococcus aureus, isolate 27660
P. aeruginosa (10145) = assay: MIC assay (Table 1); conditions: Pseudomonas aeruginosa, isolate 10145
E. coli (25922) = assay: MIC assay (Table 1); conditions: Escherichia coli, isolate 25922
NIH/3T3 cells = assay: Cytotoxicity colorimetric assay; conditions: Mus musculus, NIH3T3, 1 h, one hour incubation in serum-free media
Description: Cytotoxicity of the compounds are evaluated in a colorimetric assay using a transformed human liver cell line (HepG2, HB-8065) and an embryonic mouse cell line (NIH/3T3 cells, CRL-1658). This assay measures the bioreduction of a novel tetrazolium compound to a soluble formazan product by viable cells. HepG2 cells are seeded in 96 well plates at 2×10^4 cells/well in MEM medium with 10% fetal bovine serum (FBS) 24 hours prior to use. NIH/3T3 cells are seeded in 96 well plates at 2×10^4 cells/well in DMEM medium with 10% bovine calf serum (BCS) 24 hours prior to use. Cell monolayers are rinsed in serum-free media and incubated for one hour with a Compound in serum-free media. After incubation, the media is replaced with serum supplemented media and live cells are measured using the Cell Titer 96 Aqueous […] Assay kit (Promega, Madison, Wis.). EC50 values are determined using a four parameter logistic equation: Y=Bottom+(Top−Bottom)/(1+10^((Log EC50−X)*HillSlope)). […] Data is expressed as EC50 in μg/ml. Cytotoxicity is evaluated in a colorimetric assay using a transformed human liver cell line (HepG2, HB-8065) and an embryonic mouse cell line (NIH/3T3 cells, CRL-1658). This assay measures the bioreduction of a novel tetrazolium compound to a soluble formazan product by viable cells. HepG2 cells are seeded in 96 well plates at 3×10^4 cells/well in MEM medium with 10% fetal bovine serum (FBS) 24 hours prior to use. NIH/3T3 cells are seeded in 96 well plates at 2×10^4 cells/well in DMEM medium with 10% bovine calf serum (BCS) 24 hours prior to use. Cell monolayers are rinsed in serum-free media and incubated for one hour with test agent in serum-free media. After incubation, the media is replaced with serum supplemented media and live cells are measured using the Cell Titer 96 Aqueous […] Assay kit (Promega, Madison, Wis.). EC50 values are determined using a four parameter logistic equation: Y=Bottom+(Top−Bottom)/(1+10^((Log EC50−X)*HillSlope)).

E. faecalis (29212) = assay: MIC assay (Table 1); conditions: Enterococcus faecalis, isolate 29212
Description: (§1) The compounds are screened for antimicrobial activity against a number of clinically relevant pathogens. Minimum Inhibitory Concentrations (MIC) of each of the compounds are determined using standard procedures for clinical ocular isolates of Ciprofloxacin Susceptible (CS) S. aureus (CSSA), Ciprofloxacin Resistant (CR) S. aureus (CRSA), CS S. epidermidis (CSSE), CR S. epidermidis (CRSE), St. pneumoniae (SP), St. viridans group (SV), Moraxella Species (MS) (including Moraxella catarrhalis), H. influenzae (HI), P. aeruginosa (PA), Serratia marcescens (SM), S. aureus fluoroquinolone-susceptible, S. aureus fluoroquinolone-resistant, S. epidermidis (Coagulase-negative Staphylococcus) fluoroquinolone-susceptible, S. epidermidis (Coagulase-negative Staphylococcus) fluoroquinolone-resistant, and Serratia marcescens.
(§2) On the day of testing, a 640 μg/m (1280 μg/m for Serratia marcescens and Pseudomonas aeruginosa) concentration is prepared from a 1% stock solution in 0.01% acetic acid, 0.2% BSA in polypropylene tubes.
(§3) Ten μl of diluted 10× test agents is added to each well of one row of the 96 well polypropylene plates from column 2 to column 12 (column 1 is a control for bacteria alone, with no peptide). […] The same peptide is in each of the 8 rows. One plate contains dilutions of one test agent and 8 bacterial isolates.
(§4) Ninety μl of the bacterial suspensions is dispensed in each well from column 1 to column 12. Each bacterial isolate is placed in one row of a 96 well polypropylene plate containing the test agents. The plates are placed on shaker at 15 minutes at room temperature, and then incubated at 37° C. overnight. MICs are determined visually as the lowest concentration of drug that inhibits visible bacterial growth.
(§5) Data is expressed as MIC50 in μg/ml. The bacterial isolates were as follows: E. coli (25922); S. aureus (27660); E. faecalis (29212); P. aeruginosa (10145); and K. pneumoniae (13883).

K. pneumoniae (13883) = assay: MIC assay (Table 1); conditions: Klebsiella pneumoniae, isolate 13883, read-out: MIC50 K. Pnuemnoiae
Description: as §1, §2, §3, §4, §5

HepG2 = assay: Cytotoxicity colorimetric assay; conditions: Homo sapiens, HepG2, 1 h, one hour incubation in serum-free media
Description: Cytotoxicity of the compounds are evaluated in a colorimetric assay using a transformed human liver cell line (HepG2, HB-8065) and an embryonic mouse cell line (NIH/3T3 cells, CRL-1658). This assay measures the bioreduction of a novel tetrazolium compound to a soluble formazan product by viable cells. HepG2 cells are seeded in 96 well plates at 2×10^4 cells/well in MEM medium with 10% fetal bovine serum (FBS) 24 hours prior to use. NIH/3T3 cells are seeded in 96 well plates at 2×10^4 cells/well in DMEM medium with 10% bovine calf serum (BCS) 24 hours prior to use. Cell monolayers are rinsed in serum-free media and incubated for one hour with a Compound in serum-free media. After incubation, the media is replaced with serum supplemented media and live cells are measured using the Cell Titer 96 Aqueous […] Assay kit (Promega, Madison, Wis.). EC50 values are determined using a four parameter logistic equation: Y=Bottom+(Top−Bottom)/(1+10^((Log EC50−X)*HillSlope)). Actual results from a representative cytotoxicity assay are shown below in Table 3. Data is expressed as EC50 in μg/ml. Cytotoxicity is evaluated in a colorimetric assay using a transformed human liver cell line (HepG2, HB-8065) and an embryonic mouse cell line (NIH/3T3 cells, CRL-1658). This assay measures the bioreduction of a novel tetrazolium compound to a soluble formazan product by viable cells. HepG2 cells are seeded in 96 well plates at 3×10^4 cells/well in MEM medium with 10% fetal bovine serum (FBS) 24 hours prior to use. NIH/3T3 cells are seeded in 96 well plates at 2×10^4 cells/well in DMEM medium with 10% bovine calf serum (BCS) 24 hours prior to use. Cell monolayers are rinsed in serum-free media and incubated for one hour with test agent in serum-free media. After incubation, the media is replaced with serum supplemented media and live cells are measured using the Cell Titer 96 Aqueous […] Assay kit (Promega, Madison, Wis.). EC50 values are determined using a four parameter logistic equation: Y=Bottom+(Top−Bottom)/(1+10^((Log EC50−X)*HillSlope)).

Escherichia coli = assay: Antimicrobial activity (MIC) of aryl compounds (Table 2)
Excerpt: (§6) A new series of aryl compounds was designed to evaluate the effect of charge and aromatic group hydrophobicity on the biological activity while still maintaining an amphiphilic topology. Four and six cationic charges were investigated, and three different central rings were used to tune the overall hydrophobicity: benzene, naphthalene, and phenylbenzene. The hydrophobicities of the aryl compounds were quantified using reversed-phase HPLC retention times (Rt). The antimicrobial activities (expressed as minimum inhibitory concentration (MIC)) of these compounds were tested against four pathogens, including both Gram-negative and Gram-positive bacteria, and their hemolysis (evaluated in terms of HC50, the lowest concentration that causes 50% hemolysis of red blood cells (RBCs)) was tested against human RBCs.

Staphylococcus aureus = assay: as above
Excerpt: as §6

Structure (SMILES) | MIC50 (S. aureus (27660)) [µg/mL] | MIC50 (P. aeruginosa (10145)) [µg/mL] | MIC50 (E. coli (25922)) [µg/mL] | EC50 (NIH/3T3 cells) [µg/mL] | MIC50 (E. faecalis (29212)) [µg/mL] | MIC50 (K. pneumoniae (13883)) [µg/mL] | EC50 (HepG2) [µg/mL] | MIC (Escherichia coli; Escherichia coli, Table 2) [µg/mL] | Selectivity (HC50/MIC) E. coli (Escherichia coli; HC50/MIC) | Selectivity (HC50/MIC) S. aureus (Staphylococcus aureus; HC50/MIC) | MIC (Staphylococcus aureus; Staphylococcus aureus, Table 2, read-out: MIC S. aureus) [µg/mL]
N=C(N)NCCCOc1cc(OCCCNC(=N)N)cc(-c2ccc3ccc(-c4cc(OCCCNC(=N)N)cc(OCCCNC(=N)N)c4)cc3c2)c1 [Compound 117] | 1.56 (≈ 2.11 µM) | 12.5 (≈ 16.9 µM) | 1.56 (≈ 2.11 µM) | 31.6 (≈ 42.7 µM) | 0.78 (≈ 1.05 µM) | 1.56 (≈ 2.11 µM) |  |  |  |  | 
N=C(N)NCCCOc1cc(OCCCNC(=N)N)cc(-c2cccc(-c3cc(OCCCNC(=N)N)cc(OCCCNC(=N)N)c3)c2)c1 [Compound 109] | 0.4 (≈ 0.579 µM) | 12.5 (≈ 18.1 µM) | 1.56 (≈ 2.26 µM) | 69 (≈ 99.9 µM) | 1.56 (≈ 2.26 µM) | 6.25 (≈ 9.05 µM) |  |  |  |  | 
N=C(N)NCCCOc1ccc(-n2cc(-c3ccc4ccc(-c5cn(-c6ccc(OCCCNC(=N)N)c(OCCCNC(=N)N)c6)nn5)cc4c3)nn2)cc1OCCCNC(=N)N [Compound 104] | 25 (≈ 28.6 µM) | 50 (≈ 57.1 µM) | > 50 | 34.7 (≈ 39.7 µM) | 25 (≈ 28.6 µM) | > 50 | 54 (≈ 61.7 µM) |  |  |  | 
NCCCOc1cc(OCCCN)cc(-c2cc(-c3cc(OCCCN)cc(OCCCN)c3)cc(-c3cc4ccccc4[nH]3)c2)c1 [Compound 108] | 1.56 (≈ 2.45 µM) | 25 (≈ 39.2 µM) | 6.25 (≈ 9.8 µM) |  | 12.5 (≈ 19.6 µM) | > 50 |  |  |  |  | 
NCCCOc1cc(C#Cc2ccc3ccc(C#Cc4cc(OCCCN)cc(OCCCN)c4)cc3c2)cc(OCCCN)c1 [Compound 120] | 3.13 (≈ 5.04 µM) | 6.25 (≈ 10.1 µM) | 3.13 (≈ 5.04 µM) | 15.2 (≈ 24.5 µM) | 1.56 (≈ 2.51 µM) | 6.25 (≈ 10.1 µM) | 36.4 (≈ 58.6 µM) |  |  |  | 
NCCCOc1cc(OCCCN)cc(-c2cccc(-c3cc(OCCCN)cc(OCCCN)c3)c2)c1 [Compound 111] | 12.5 (≈ 23.9 µM) | > 50 | 50 (≈ 95.7 µM) | 814 (≈ 1560 µM) | 50 (≈ 95.7 µM) | > 50 | > 1020 | 50 (≈ 95.7 µM) | >20 | >80 | 12.5 (≈ 23.9 µM)
NCCCOc1cc(-c2cn(-c3cc(OCCCN)cc(OCCCN)c3)nn2)cc(-c2cn(-c3cc(OCCCN)cc(OCCCN)c3)nn2)c1 [Compound 105] | 25 (≈ 34.3 µM) | 50 (≈ 68.5 µM) | 50 (≈ 68.5 µM) | 83.4 (≈ 114 µM) | > 50 | > 50 |  |  |  |  | 
NCCCOc1cc(OCCCN)cc(-n2cc(-c3ccc4ccc(-c5cn(-c6cc(OCCCN)cc(OCCCN)c6)nn5)cc4c3)nn2)c1 [Compound 102] | 12.5 (≈ 17.7 µM) | > 50 | > 50 | 36.1 (≈ 51.1 µM) | 25 (≈ 35.4 µM) | 50 (≈ 70.7 µM) | 48.4 (≈ 68.5 µM) |  |  |  | 
NCCCOc1ccc(-n2cc(-c3ccc4ccc(-c5cn(-c6ccc(OCCCN)c(OCCCN)c6)nn5)cc4c3)nn2)cc1OCCCN [Compound 103] | 25 (≈ 35.4 µM) | 50 (≈ 70.7 µM) | > 50 | 32.7 (≈ 46.3 µM) | 25 (≈ 35.4 µM) | > 50 | 55.5 (≈ 78.5 µM) |  |  |  | 
Cc1ccc(-c2cc(-c3cc(OCCCN)cc(OCCCN)c3)cc(-c3cc(OCCCN)cc(OCCCN)c3)c2)cc1 [Compound 110] | 0.78 (≈ 1.27 µM) | 25 (≈ 40.8 µM) | 3.13 (≈ 5.11 µM) | 129 (≈ 211 µM) | 1.56 (≈ 2.55 µM) | 6.25 (≈ 10.2 µM) |  |  |  |  | 
N=C(N)NCCCOc1cc(-c2cn(-c3cc(OCCCNC(=N)N)cc(OCCCNC(=N)N)c3)nn2)cc(-c2cn(-c3cc(OCCCNC(=N)N)cc(OCCCNC(=N)N)c3)nn2)c1 [Compound 100] | 50 (≈ 53.2 µM) | > 50 | 50 (≈ 53.2 µM) | 23.2 (≈ 24.7 µM) | 25 (≈ 26.6 µM) | > 50 | 48.6 (≈ 51.7 µM) |  |  |  | 
N=C(N)NCCCOc1cc(OCCCNC(=N)N)cc(-c2cc(-c3ccccc3)cc(-c3cc(OCCCNC(=N)N)cc(OCCCNC(=N)N)c3)c2)c1 [Compound 114] | 0.78 (≈ 1.02 µM) | 12.5 (≈ 16.3 µM) | 1.56 (≈ 2.03 µM) | 33.6 (≈ 43.8 µM) | 3.13 (≈ 4.08 µM) | 1.56 (≈ 2.03 µM) | 40.4 (≈ 52.7 µM) |  |  |  | 
NCCCOc1ccc(-n2cc(-c3cccc(-c4cn(-c5ccc(OCCCN)c(OCCCN)c5)nn4)c3)nn2)cc1OCCCN [Compound 101] | 12.5 (≈ 19 µM) | 50 (≈ 76.1 µM) | > 50 | 52.4 (≈ 79.8 µM) | 12.5 (≈ 19 µM) | > 50 |  |  |  |  | 
N=C(N)NCCCOc1cc(-c2cn(-c3cccc(OCCCNC(=N)N)c3)nn2)cc(-c2cn(-c3cccc(OCCCNC(=N)N)c3)nn2)c1 [Compound 106] | 1.56 (≈ 2.2 µM) | 50 (≈ 70.4 µM) | 25 (≈ 35.2 µM) | 191 (≈ 269 µM) | 50 (≈ 70.4 µM) | > 50 |  |  |  |  | 
CC(C)(C)c1ccc(-c2cc(-c3cc(OCCCN)cc(OCCCN)c3)cc(-c3cc(OCCCN)cc(OCCCN)c3)c2)cc1 [Compound 113] | 1.56 (≈ 2.38 µM) | 12.5 (≈ 19.1 µM) | 3.13 (≈ 4.78 µM) | 99.5 (≈ 152 µM) | 1.56 (≈ 2.38 µM) | 3.13 (≈ 4.78 µM) |  |  |  |  | 
NCCCOc1cc(-c2cn(-c3cccc(OCCCN)c3)nn2)cc(-c2cn(-c3cccc(OCCCN)c3)nn2)c1 [Compound 107] | 50 (≈ 85.7 µM) | 25 (≈ 42.8 µM) | > 50 | 131 (≈ 224 µM) | 25 (≈ 42.8 µM) | > 50 |  |  |  |  | 
